Experimental data as given in ChEMBL document CHEMBL1137791, “Cell division cycle 7 kinase inhibitors: 1H-pyrrolo[2,3-b]pyridines, synthesis and structure-activity relationships” (J Med Chem, 2009).

How the values were obtained:
[1] = molecular target: Cell division cycle 7-related protein kinase (Homo sapiens, UniProt O00311); experiment: Inhibition of Cdc7-mediated phosphorylation of Mcm2
A2780 = experiment: Antiproliferative activity against human A2780 cells after 72 hrs by firefly luciferase assay; type: functional, cell-based; settings: A2780, 72 h
[2] = molecular target: Cyclin-dependent kinase 2 (Homo sapiens, UniProt P24941); experiment: Inhibition of Cdk2/cyclinA
[3] = molecular target: cAMP-dependent protein kinase catalytic subunit alpha (Homo sapiens, UniProt P17612); experiment: Inhibition of PKAalpha
CDK9/cyclin T1 = CDK9/cyclin T1 (Homo sapiens, UniProt P50750); experiment: Inhibition of Cdk9/cyclinT; type: protein-complex assay
Sequence of CDK9/cyclin T1 (O60563 whole entry): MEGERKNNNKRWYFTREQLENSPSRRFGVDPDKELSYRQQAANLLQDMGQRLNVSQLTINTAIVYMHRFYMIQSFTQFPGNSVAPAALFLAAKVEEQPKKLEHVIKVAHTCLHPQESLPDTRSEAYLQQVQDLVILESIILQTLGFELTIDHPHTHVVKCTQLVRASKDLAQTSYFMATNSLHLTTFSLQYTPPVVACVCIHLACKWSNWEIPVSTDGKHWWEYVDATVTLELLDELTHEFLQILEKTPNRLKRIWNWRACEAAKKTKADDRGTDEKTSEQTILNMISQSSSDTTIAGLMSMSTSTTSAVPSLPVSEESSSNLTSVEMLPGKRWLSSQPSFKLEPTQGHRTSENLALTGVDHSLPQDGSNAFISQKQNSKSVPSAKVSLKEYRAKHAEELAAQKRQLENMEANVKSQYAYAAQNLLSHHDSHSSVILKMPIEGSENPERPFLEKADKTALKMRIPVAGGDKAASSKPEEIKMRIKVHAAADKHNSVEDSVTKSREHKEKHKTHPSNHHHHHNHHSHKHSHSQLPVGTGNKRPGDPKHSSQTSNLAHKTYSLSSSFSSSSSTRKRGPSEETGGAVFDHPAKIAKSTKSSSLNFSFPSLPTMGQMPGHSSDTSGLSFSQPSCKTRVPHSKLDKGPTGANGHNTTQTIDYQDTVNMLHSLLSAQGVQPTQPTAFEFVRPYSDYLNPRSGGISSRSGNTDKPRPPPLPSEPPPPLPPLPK
Sequence of CDK9/cyclin T1 (P50750 whole entry): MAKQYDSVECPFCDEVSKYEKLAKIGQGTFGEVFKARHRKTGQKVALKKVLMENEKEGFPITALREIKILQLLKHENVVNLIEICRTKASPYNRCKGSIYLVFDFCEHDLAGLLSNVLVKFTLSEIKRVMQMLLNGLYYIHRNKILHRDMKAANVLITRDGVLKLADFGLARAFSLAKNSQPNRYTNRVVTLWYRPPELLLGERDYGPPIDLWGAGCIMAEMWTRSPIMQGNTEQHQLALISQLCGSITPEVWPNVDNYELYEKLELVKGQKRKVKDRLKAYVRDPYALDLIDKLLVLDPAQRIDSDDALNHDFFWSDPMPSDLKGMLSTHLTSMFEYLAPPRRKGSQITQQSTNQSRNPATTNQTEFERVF

Sequence of Cell division cycle 7-related protein kinase (O00311 whole entry): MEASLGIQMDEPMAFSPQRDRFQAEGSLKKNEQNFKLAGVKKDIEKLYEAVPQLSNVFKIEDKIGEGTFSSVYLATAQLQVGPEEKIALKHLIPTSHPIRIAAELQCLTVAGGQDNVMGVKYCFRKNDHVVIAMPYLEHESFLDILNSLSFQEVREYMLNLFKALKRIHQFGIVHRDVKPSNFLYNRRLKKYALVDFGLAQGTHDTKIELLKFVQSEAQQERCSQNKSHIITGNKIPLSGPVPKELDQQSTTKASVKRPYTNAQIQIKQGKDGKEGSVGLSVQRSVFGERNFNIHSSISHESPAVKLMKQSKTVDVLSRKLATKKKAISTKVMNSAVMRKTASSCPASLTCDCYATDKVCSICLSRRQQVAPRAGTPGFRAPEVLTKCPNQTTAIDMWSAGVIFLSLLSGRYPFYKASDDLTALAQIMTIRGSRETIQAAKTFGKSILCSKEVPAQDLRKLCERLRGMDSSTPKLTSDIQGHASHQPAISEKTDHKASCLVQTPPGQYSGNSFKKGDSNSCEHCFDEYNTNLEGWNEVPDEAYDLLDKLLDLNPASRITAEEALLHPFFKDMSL

SMILES	IC50 [1] [nM]	other results
O=C1NC(NCc2cccs2)=N/C1=C\c1c[nH]c2ncccc12	18	–
C[C@H](NC1=N/C(=C\c2c[nH]c3ncccc23)C(=O)N1)c1ccccc1	21	IC50 (A2780): 380 nM
O=C1NC(c2cccnc2)=N/C1=C\c1c[nH]c2ncccc12	60	–
O=C1N=C(NCc2ccco2)S/C1=C\c1c[nH]c2ncccc12	4	IC50 (A2780): 1200 nM
CC(C)(C)CCNC1=N/C(=C\c2c[nH]c3ncccc23)C(=O)N1	24	–
O=C1NC(NCCO)=N/C1=C\c1c[nH]c2ncccc12	37	–
O=C1N=C(NCc2ccccc2)S/C1=C\c1c[nH]c2ncccc12	9	IC50 [2]: < 50 nM; IC50 (A2780): 320 nM; IC50 [3]: < 50 nM; IC50 (CDK9/cyclin T1): 15 nM
CC(C)NC1=NC(=O)/C(=C/c2c[nH]c3ncccc23)S1	10	IC50 (A2780): 1000 nM
C/C(=C1/N=C(NCc2ccccc2)NC1=O)c1c[nH]c2ncccc12	> 10000	–
O=C1NC(NCc2ccccc2)=N/C1=C/c1c[nH]c2ncc([N+](=O)[O-])cc12	> 10000	–
Cc1ccc(C2=N/C(=C\c3c[nH]c4ncccc34)C(=O)N2)cc1	47	–
O=C1NC(N2CCCCC2)=N/C1=C\c1c[nH]c2ncccc12	25	–
O=C1NC(N2CCOCC2)=N/C1=C\c1c[nH]c2ncccc12	47	–
CC1CCN(C2=N/C(=C\c3c[nH]c4ncccc34)C(=O)N2)CC1	105	–
O=C1NC(c2ccccc2)=N/C1=C\c1c[nH]c2ccccc12	> 10000	–
Cc1ccc(CNC2=N/C(=C\c3c[nH]c4ncccc34)C(=O)N2)cc1	162	–
O=C1NC(NCc2ccc(Cl)cc2)=N/C1=C\c1c[nH]c2ncccc12	86	–
O=C1NC(NCC2CCCCC2)=N/C1=C\c1c[nH]c2ncccc12	64	–
O=C1NC(NCC23CC4CC(CC(C4)C2)C3)=N/C1=C\c1c[nH]c2ncccc12	128	–
CCNC1=N/C(=C\c2c[nH]c3ncccc23)C(=O)N1	45	–
CC(C)NC1=N/C(=C\c2c[nH]c3ncccc23)C(=O)N1	13	IC50 (A2780): 8800 nM
O=C1NC(SCc2ccccc2)=N/C1=C\c1c[nH]c2ncccc12	–	IC50 (CDK9/cyclin T1): 6100 nM

SMILES	IC50 [1] [nM]	other results
O=C1NC(NCc2ccccc2)=N/C1=C\c1c[nH]c2ncc([N+](=O)[O-])cc12	130	–
Nc1cnc2[nH]cc(/C=C3\N=C(NCc4ccccc4)NC3=O)c2c1	238	–
O=C1NC(NC2CCCCC2)=N/C1=C\c1c[nH]c2ncccc12	21	–
O=C1NC(NCc2cccc(Br)c2)=N/C1=C\c1c[nH]c2ncccc12	55	–
O=C1NC(NCc2ccc(Br)cc2)=N/C1=C\c1c[nH]c2ncccc12	127	–
O=C1NC(NCC2CCCO2)=N/C1=C\c1c[nH]c2ncccc12 (stereo not given)	21	–
CC1CCC(NC2=N/C(=C\c3c[nH]c4ncccc34)C(=O)N2)CC1 (stereo not given)	13	–
CC(C)(C)C1CCC(NC2=N/C(=C\c3c[nH]c4ncccc34)C(=O)N2)CC1 (stereo not given)	207	–
Cc1cccc(CNC2=N/C(=C\c3c[nH]c4ncccc34)C(=O)N2)c1	50	–
CCCCCCCNC1=N/C(=C\c2c[nH]c3ncccc23)C(=O)N1	247	–
C[C@H](NC1=NC(=O)/C(=C/c2c[nH]c3ncccc23)S1)c1ccccc1	26	IC50 (A2780): 42 nM
CC1CN(C2=N/C(=C\c3c[nH]c4ncccc34)C(=O)N2)CCO1 (stereo not given)	66	–
Cc1cccc(C2=N/C(=C\c3c[nH]c4ncccc34)C(=O)N2)c1	30	–
CCCCCNC1=N/C(=C\c2c[nH]c3ncccc23)C(=O)N1	35	–
O=C1NC(c2ccccc2)=N/C1=C\c1c[nH]c2ncccc12	50	–
O=C1NC(NC2CC2)=N/C1=C\c1c[nH]c2ncccc12	33	–
O=C1NC(NCc2ccccc2)=N/C1=C\c1c[nH]c2ncccc12	20	IC50 (A2780): 1200 nM; IC50 (CDK9/cyclin T1): 95 nM
CC(=O)Nc1cnc2[nH]cc(/C=C3\N=C(NCc4ccccc4)NC3=O)c2c1	116	–
O=C1NC(NCc2ccco2)=N/C1=C\c1c[nH]c2ncccc12	15	IC50 (A2780): 4000 nM
O=C1NC(NCc2cccc(Cl)c2)=N/C1=C\c1c[nH]c2ncccc12	39	–
O=C1NC(NCCc2ccccc2)=N/C1=C\c1c[nH]c2ncccc12	18	–
